Test results from patent US8980842B2, “Contraceptive peptides derived from the venom of the spider Latrodectus mirabilis, nucleotide sequences to transform a microorganism to produce said peptides; methods to obtain the peptides; pharmaceutical compositions containing thereof and use thereof” (Universidad de la Frontera, priority 2010, dated 2015).

Tests used:
[1] = test system: human spermatozoa; experiment: Sperm motility (immobilizing effect) assay in selected human spermatozoa (swim up); format: cell-based
Experimental: The spermicidal effect of the wild-type peptide and the constructed analog was assayed by assessing the sperm motility in human spermatozoa. For this, 15 mL of HTF-0.1% BSA medium (0.02 g BSA in 20 mL HTF) and 3 mL of HTF-1% BSA medium (0.04 g BSA in 4 mL HTF) were placed in an assay tube and incubated at 37° C. Subsequently, a sample of 2.6 mL of human semen was incubated during 25 minutes until liquefaction. Once liquefied, the sample was divided into 3 15-mL conical tubes with 2 mL of warm HTF-0.1% BSA in each tube. 860 μL of liquefied semen were vertically added to the bottom of each tube, gently pipetting to homogenize the mixture avoiding the formation of bubbles. Large clots were removed. Subsequently, the sample was centrifuged for 8 minutes at 1,800 rpm and the supernatant was discarded by touching only the surface of the medium with the pipette tip just on the tube walls and pipetting out the liquid. […] Then, spermatozoa were counted, reaching values around 10 million of selected spermatozoa per mL (10×10^6/mL). Different concentrations of the total venom and the different venom fractions obtained in the chromatographic purification, as well as the constructed analog peptide, were applied to samples of the spermatozoid previously selected and counted and were incubated in HTF medium for 45 minutes at 37° C. […]

[2] = test system: human spermatozoa; experiment: Hamster oocyte penetration assay (Yanagimachi et al. 1976), fertilizing capacity of human spermatozoa; format: cell-based; conditions: agent at its IC50 from the sperm motility curve; n=15 oocytes per group; versus control
Experimental: The decrease of the fertilizing capacity of human spermatozoa was assayed using penetration assays in hamster oocytes according to the protocol initially described by Yanagimachi et al. (1976). Briefly, golden hamster oocytes were collected; their […] was removed, and oocytes were subsequently incubated with previously capacitated human spermatozoa at a concentration of 10^7 spermatozoa/ml. The incubation was prolonged for 3-6 hours. […] The oocytes were observed using phase contrast microscopy and were only considered to have been penetrated by spermatozoa when they contained a head in decondensation stage or a male pronucleus inside their cytoplasm.

## 20-amino acid linear analog of the venom peptide, cysteine 43 replaced by alanine; SLAKTNCFTTEYFQHCVKDL [Ac-[Ala^43]-ATX41-60-NH2]
[1]; maximal doses (FIG. 2)
  spermatozoids affected at maximal doses: 100%
[1]; selected human spermatozoa (swim up), incubated 45 minutes in HTF medium, 37° C.
  IC50 of the immobilizing effect (spermatozoa with no progressive linear movement): 39.81 µg/mL
[2]
  decrease in the fertilizing capacity of spermatozoa: 82±0.3%
